According to ChEMBL document CHEMBL1201862, “PubChem BioAssay data set” (2004):
Active and inactive are the calls of the source. Cut-off read from the data, not from the text of the source, for most assays here: actives have a measured EC50 and inactives only a lower limit.

Columns and labels:
[1] = biological target: T1, Heat shock factor protein 1 (Mus musculus, UniProt P38532); assay: enhancement of HSF1-driven luciferase signal – cell-based, NIH3T3, luminescence, dose retest, confirmation (AID 435004); format: functional;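 note: stress induced by proteasome inhibitor MG132 added 30 min after compound; luciferase reporter driven by HSF1 response element in NIH3T3 cells; actives raise luminescence as potentiators of the MG132 stress response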
T1 sequence (P38532 whole entry): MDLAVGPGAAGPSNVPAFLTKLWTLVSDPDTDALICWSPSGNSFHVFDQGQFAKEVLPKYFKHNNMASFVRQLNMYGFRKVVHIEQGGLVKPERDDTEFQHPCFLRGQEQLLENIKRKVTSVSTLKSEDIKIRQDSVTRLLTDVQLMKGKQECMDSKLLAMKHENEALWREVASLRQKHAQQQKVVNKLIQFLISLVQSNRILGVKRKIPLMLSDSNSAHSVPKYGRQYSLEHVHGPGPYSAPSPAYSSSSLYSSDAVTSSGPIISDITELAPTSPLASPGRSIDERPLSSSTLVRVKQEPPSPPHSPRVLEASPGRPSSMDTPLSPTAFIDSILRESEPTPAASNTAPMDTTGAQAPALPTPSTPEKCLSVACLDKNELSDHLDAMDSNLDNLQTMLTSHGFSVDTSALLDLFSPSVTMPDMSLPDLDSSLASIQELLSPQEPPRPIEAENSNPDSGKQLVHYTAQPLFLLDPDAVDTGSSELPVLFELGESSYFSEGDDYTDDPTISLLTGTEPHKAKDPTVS

Paired box protein Pax-8 = Paired box protein Pax-8 (Homo sapiens, UniProt Q06710); assay: PAX8 transcriptional activity inhibition in RMG-I – RMG-I cells, luciferase, cherry-pick, dose response (AID 687027); format: functional, cell-based;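 note: luciferase reporter driven by Pax8 target thyroperoxidase promoter measured by SteadyGlo luminescence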
[2] = biological target: FAD-linked sulfhydryl oxidase ALR (Homo sapiens, UniProt P55789); assay: ALR-catalysed DTT oxidation blockers – biochemical, H2O2 detection, luminescence, cherry-pick, dose response (AID 493248)
cells [3] = format: functional
[4] = biological target: T2, Rac GTPase-activating protein 1 (Homo sapiens, UniProt Q9H0H5); assay: blockers of MgcRacGAP-driven Rac1 GTP hydrolysis – biochemical, ADP Hunter fluorescence, primary and confirmatory, confirmation (AID 624330); format: functional
T2 sequence (Q9H0H5 whole entry): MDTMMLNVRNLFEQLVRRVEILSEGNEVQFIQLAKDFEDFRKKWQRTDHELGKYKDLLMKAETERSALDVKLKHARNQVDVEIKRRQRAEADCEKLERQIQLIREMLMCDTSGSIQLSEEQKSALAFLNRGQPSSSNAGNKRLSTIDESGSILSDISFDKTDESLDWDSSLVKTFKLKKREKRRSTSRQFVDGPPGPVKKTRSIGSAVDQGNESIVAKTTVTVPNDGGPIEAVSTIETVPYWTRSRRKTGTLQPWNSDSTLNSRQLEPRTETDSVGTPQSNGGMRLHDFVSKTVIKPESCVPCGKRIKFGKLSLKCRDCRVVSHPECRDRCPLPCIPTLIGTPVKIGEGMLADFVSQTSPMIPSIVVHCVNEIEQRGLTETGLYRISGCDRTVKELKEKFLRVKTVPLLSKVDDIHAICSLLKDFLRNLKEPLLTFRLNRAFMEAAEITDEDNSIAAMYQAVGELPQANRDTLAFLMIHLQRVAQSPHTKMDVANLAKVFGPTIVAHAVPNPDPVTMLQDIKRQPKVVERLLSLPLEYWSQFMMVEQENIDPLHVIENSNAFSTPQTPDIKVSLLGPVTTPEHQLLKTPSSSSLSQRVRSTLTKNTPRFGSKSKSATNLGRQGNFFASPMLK

[5] = blockers of HIV-1 envelope-mediated cell-cell fusion – cherry-pick, dose response (AID 652057); format: functional, cell-based
[6] = blockers of HIV-1 ZM109 envelope-driven cell-cell fusion – HeLa effector, CEM target cells, luciferase, cherry-pick, dose response (AID 652058); format: functional, cell-based;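 note: luciferase signal from HIV-1 Env mediated cell-cell fusion of effector and target cells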
[7] = HIV-1 AD8 envelope cell-cell fusion blockers – cherry-pick, dose response (AID 652062); format: functional, cell-based;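 note: luciferase signal from cell-cell fusion driven by HIV-1 clade B AD8 Env; potency is for inhibitors of fusion seen as a drop in luminescence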
cells [8] = format: functional, cell-based
cells [9] = format: functional, cell-based; remark: listed apart in the source
Cytochrome P450 1A2 = biological target: T3, Cytochrome P450 1A2 (Homo sapiens, UniProt P05177);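 note: PubChem cytochrome P450 panel assay, CYP1A2 panel member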
T3 sequence (P05177 whole entry): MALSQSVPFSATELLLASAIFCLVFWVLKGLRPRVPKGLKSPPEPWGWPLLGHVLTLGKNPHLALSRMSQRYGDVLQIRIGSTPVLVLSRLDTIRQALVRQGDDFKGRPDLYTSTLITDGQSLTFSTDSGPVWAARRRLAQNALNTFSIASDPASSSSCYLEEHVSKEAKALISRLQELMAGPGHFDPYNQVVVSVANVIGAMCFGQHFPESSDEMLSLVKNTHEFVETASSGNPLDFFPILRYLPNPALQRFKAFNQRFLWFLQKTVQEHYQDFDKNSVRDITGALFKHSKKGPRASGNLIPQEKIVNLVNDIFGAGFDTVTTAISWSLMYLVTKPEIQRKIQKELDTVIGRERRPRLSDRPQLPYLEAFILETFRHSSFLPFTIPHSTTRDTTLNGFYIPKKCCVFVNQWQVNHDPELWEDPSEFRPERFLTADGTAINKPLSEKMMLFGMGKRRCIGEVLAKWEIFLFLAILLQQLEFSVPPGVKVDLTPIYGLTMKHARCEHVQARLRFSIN

[10] = biological target: Luciferin 4-monooxygenase (Photinus pyralis, UniProt P08659); assay: inhibition of purified Photinus pyralis luciferase – biochemical, luminescence, dose response (AID 1891)
[11] = Luminescence Cell-Based Dose Confirmation HTS to Identify Inhibitors of Platelet Dense Granule Release. [Related pubchem assays: 1663 (Primary HTS), 1678 (Summary of Project)]; format: functional
[12] = Trypanosoma cruzi growth suppression in host cells – NIH3T3 host cells, beta-gal luminescence, confirmation (AID 2044); format: functional, cell-based;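 note: intracellular parasites grown in NIH/3T3 mouse fibroblasts as host cells; luminescent beta-galactosidase reporter signal from transgenic T. cruzi replicating inside host cells; inhibitors lower the luminescence signal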
[13] = NIH3T3 cell viability loss – ATP luminescence, mouse fibroblasts, counter-screen, dose response (AID 2010); format: functional, cell-based;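 note: cells exposed to compound for about 90 hours before reading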
Cytochrome P450 2C9 = Cytochrome P450 2C9 (Homo sapiens, UniProt P11712)
[14] = viability of uninfected HEp-2 cells – cell-based, HTS, cytotoxicity control for RSV inhibitor project, dose response (AID 2410); format: functional; conditions: human respiratory syncytial virus
INS1 = assay: INS-1E survival protection against cytokine death – cell-based, luminescence, retest, dose response (AID 449756); format: functional; conditions: Rattus norvegicus;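 note: cell death triggered by IL-1 beta plus TNF-alpha plus IFN-gamma mixture; protective hits raise ATP signal compared with cytokine alone wells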
BJ [15] = assay: BJ-TERT fibroblast viability loss – cell-based, RAS-independent, luminescence, dose response (AID 1933); format: functional; conditions: Homo sapiens
BJ [16] = assay: cells; format: functional, cell-based; conditions: Homo sapiens
BJ [17] = assay: BJ-TERT-LT-ST fibroblast viability loss – cell-based, RAS-independent, luminescence, dose response (AID 1935); format: functional; conditions: Homo sapiens;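 note: BJ fibroblasts immortalized with TERT plus LT and ST oncogenes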
[18] = DRD fibroblast viability loss – cell-based, non-viral oncogenic, luminescence, dose response (AID 1934); format: functional; conditions: Homo sapiens
[19] = biological target: T1, Heat shock factor protein 1; assay: decrease of HSF1-responsive luciferase luminescence – cell-based, NIH3T3, dose retest, confirmation (AID 2382); format: functional;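 note: NIH3T3 fibroblasts with HSF1-driven luciferase reporter stressed by proteasome inhibitor MG132; luminescence from HSF1-driven luciferase expression after 8 hours of MG132 stress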

Luciferin 4-monooxygenase, sequence (P08659 whole entry): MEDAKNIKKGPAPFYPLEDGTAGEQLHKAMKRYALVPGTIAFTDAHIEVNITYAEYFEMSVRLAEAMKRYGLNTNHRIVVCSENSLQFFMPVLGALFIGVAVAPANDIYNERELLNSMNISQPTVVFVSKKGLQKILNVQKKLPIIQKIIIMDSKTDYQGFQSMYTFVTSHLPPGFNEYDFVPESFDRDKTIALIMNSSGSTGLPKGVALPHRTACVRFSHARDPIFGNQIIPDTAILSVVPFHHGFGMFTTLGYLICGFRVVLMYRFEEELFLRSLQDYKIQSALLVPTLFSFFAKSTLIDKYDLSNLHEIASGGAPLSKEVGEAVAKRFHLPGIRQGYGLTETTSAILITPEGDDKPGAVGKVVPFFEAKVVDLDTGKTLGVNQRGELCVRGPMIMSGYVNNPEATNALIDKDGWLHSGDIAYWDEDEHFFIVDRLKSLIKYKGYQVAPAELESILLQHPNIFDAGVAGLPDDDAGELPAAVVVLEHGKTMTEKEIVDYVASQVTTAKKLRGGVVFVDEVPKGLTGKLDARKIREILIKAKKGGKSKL
FAD-linked sulfhydryl oxidase ALR, sequence (P55789 whole entry): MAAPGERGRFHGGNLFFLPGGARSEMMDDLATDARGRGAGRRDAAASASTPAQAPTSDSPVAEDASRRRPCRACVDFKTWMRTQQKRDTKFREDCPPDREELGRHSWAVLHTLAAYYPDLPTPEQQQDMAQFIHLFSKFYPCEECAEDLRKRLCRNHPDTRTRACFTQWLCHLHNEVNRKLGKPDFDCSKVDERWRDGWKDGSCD
Cytochrome P450 2C9, sequence (P11712 whole entry): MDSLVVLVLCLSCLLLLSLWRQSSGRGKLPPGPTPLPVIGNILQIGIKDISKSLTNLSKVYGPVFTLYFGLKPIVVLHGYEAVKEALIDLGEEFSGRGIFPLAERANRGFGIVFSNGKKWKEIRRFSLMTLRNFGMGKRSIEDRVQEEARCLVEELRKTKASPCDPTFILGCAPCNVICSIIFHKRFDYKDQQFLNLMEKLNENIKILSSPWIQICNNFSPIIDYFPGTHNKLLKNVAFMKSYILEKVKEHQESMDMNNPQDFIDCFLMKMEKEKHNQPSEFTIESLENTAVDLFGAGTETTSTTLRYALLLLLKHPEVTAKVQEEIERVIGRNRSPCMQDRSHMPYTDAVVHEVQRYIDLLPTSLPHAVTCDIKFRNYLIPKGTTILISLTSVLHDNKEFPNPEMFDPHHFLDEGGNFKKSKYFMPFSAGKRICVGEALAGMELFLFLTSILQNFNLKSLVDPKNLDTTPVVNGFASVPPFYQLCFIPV
Paired box protein Pax-8, sequence (Q06710 whole entry): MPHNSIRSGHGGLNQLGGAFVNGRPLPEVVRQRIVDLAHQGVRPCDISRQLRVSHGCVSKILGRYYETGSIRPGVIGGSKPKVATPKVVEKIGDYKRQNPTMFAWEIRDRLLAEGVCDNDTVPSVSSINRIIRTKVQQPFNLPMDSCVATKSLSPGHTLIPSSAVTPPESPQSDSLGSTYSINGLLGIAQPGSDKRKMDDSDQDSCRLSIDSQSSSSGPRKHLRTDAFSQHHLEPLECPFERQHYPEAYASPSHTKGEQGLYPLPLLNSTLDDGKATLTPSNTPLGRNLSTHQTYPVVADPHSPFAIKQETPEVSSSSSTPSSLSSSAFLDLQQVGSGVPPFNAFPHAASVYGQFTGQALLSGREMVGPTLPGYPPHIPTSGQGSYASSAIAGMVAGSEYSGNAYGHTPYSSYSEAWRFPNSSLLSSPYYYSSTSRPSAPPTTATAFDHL

NC(=O)c1cc2cc(Br)ccc2o/c1=N\Cc1ccccc1
EC50 [1]: > 260 µM (inactive)

COc1ccc(S(=O)(=O)Nc2ccc3c(c2)C(=O)N([C@H](C)CO)C[C@H](C)[C@@H](CN(C)Cc2ccc(C(F)(F)F)cc2)OCCCC[C@H](C)O3)cc1
AC50 (Paired box protein Pax-8): 18.9 µM (active)

CCCn1cnc2cc(NCc3ccccc3O)ccc21
AC50 [2]: 3.92 µM (active)

CCN(CC)c1ccc(CNCCc2ccccc2F)cc1
AC50 [2]: 1.36 µM (active)

O=C(Oc1ccccc1Cl)c1ccc2c(=O)n3c(nc2c1)CCC3
IC50 (cells [3]): 5.48 µM (active)

COc1cc(/C=N/NC(=O)CCNC(=O)c2ccccc2Cl)ccc1O
AC50 [2]: 3.1 µM (active) | IC50 [4]: 29 µM (active)

C[C@H]1CN([C@@H](C)CO)C(=O)Cc2cc(NC(=O)Nc3cccc4ccccc34)ccc2O[C@H]1CN(C)S(=O)(=O)c1ccc(F)cc1
AC50 [5]: 3.46 µM (active) | AC50 [6]: 7.77 µM (active) | AC50 [7]: 6.07 µM (active)

CCn1c(-c2cc(Br)ccc2O)n[nH]c1=S
AC50 [2]: 4.27 µM (active)

CCO/C(O)=C1\C(C)=Nc2ncnn2C1c1ccc2c(c1)OCO2 (centres undefined)
EC50 [1]: > 260 µM (inactive)

O=C(O)c1ccccc1OC(C(=O)Nc1cc(Cl)cc(Cl)c1)c1ccccc1 (centres undefined)
EC50 [1]: > 260 µM (inactive)

CNc1c2c(nn1C)CCCC2 [TETRYDAMINE]
EC50 (cells [8]): > 350 µM (not active) | EC50 (cells [9]): > 350 µM (not active) | AC50 (Cytochrome P450 1A2): 39.8 µM (inconclusive)

CCc1ccc(-n2c(S)nnc2Cc2ccccc2)cc1
EC50 [10]: > 112 µM (not active) | EC50 [11]: > 112 µM (not active)

CC(C)(C)NCC1(CO)SC(N)=NC1=O (centres undefined)
EC50 [12]: 3.82 µM (active) | EC50 [13]: > 30 µM (not active) | IC50 (cells [3]): 16.4 µM (active)

CC(=O)N1c2ccc(S(=O)(=O)N3CCCCC3)cc2CC1C(=O)Nc1ccccc1C(F)(F)F (centres undefined)
EC50 [10]: > 112 µM (not active) | EC50 [11]: > 112 µM (not active)

CC/C(C)=N/Nc1nc(-c2cc3cccc(OC)c3oc2=O)cs1
AC50 [2]: 0.091 µM (active)

CCCN(CCC)C(S)=NC1CC2C=CC1C2 (centres undefined)
EC50 [1]: > 260 µM (inactive)

Cc1ccccc1CSc1nsc(N)n1
EC50 [1]: > 260 µM (inactive) | AC50 (Cytochrome P450 2C9): 2 µM (inconclusive)

O=C1C(=O)c2ccccc2C(O)=C1c1cccc([N+](=O)[O-])c1
CC50 [14]: 14.2 µM (active) | EC50 (cells [8]): > 350 µM (not active) | EC50 (cells [9]): 56.5 µM (active)

O=C(CSC1CS(=O)(=O)c2cc([N+](=O)[O-])ccc21)NNC(=O)c1ccc(Cl)cc1 (centres undefined)
EC50 [1]: > 260 µM (inactive)

O=C(NCC1COc2ccccc2O1)c1cccc(S(=O)(=O)NCc2ccccc2)c1 (centres undefined)
AC50 (INS1): 8.07 µM (active)

O=C(Nc1cccc(Cl)c1)Nc1ccccc1C(=O)O
EC50 [10]: 0.654 µM (active) | EC50 [11]: 11.4 µM (active)

Cc1cccc2nc(CSc3nc4nncc-4c(O)n3-c3cccc(Cl)c3)cc(=O)n12
AC50 (INS1): 8.23 µM (active)

Cc1ccc(OCC(=O)OCc2c(C)noc2C)cc1C
IC50 (cells [3]): 22.7 µM (active)

COc1ccccc1N(CC(=O)NC1CCCCC1)S(C)(=O)=O
EC50 (cells [8]): > 350 µM (not active) | EC50 (cells [9]): > 350 µM (not active)

Cc1sc2ncnc(SCC(=O)N3CCCC3)c2c1C
EC50 [10]: > 112 µM (not active) | EC50 [11]: > 112 µM (not active)

COc1ccc(NC(=O)C(=O)NCCC2CCCCN2S(=O)(=O)c2ccccc2)cc1 (centres undefined)
EC50 (BJ [15]): 22.8 µM (active) | EC50 (BJ [16]): 19.8 µM (active) | EC50 (BJ [17]): 23.4 µM (active) | EC50 [18]: 13.5 µM (inconclusive)

CCOC(=O)c1cc2nc(-c3ccco3)cc(C(F)(F)F)n2n1
EC50 [19]: > 195 µM (not active) | EC50 [10]: > 112 µM (not active) | EC50 [11]: > 112 µM (not active)

CN(C)c1ccc(/C=N/Nc2nncc3ccccc23)cc1
EC50 [10]: 1.11 µM (active) | EC50 [11]: 2.37 µM (active)

CCOC(=O)CC(=O)CSCC(=O)Nc1ccc(C)cc1
EC50 [1]: > 260 µM (inactive)

C[C@H](CO)N1C[C@H](C)[C@@H](CN(C)C(=O)NC2CCCCC2)Oc2c(cccc2N(C)C)C1=O
AC50 [6]: 36.3 µM (active) | AC50 [7]: 0.558 µM (active)

Nc1cccc(C(=O)Nc2ccc3[nH]c(-c4cccnc4)nc3c2)c1
AC50 [2]: 1.07 µM (active)

O=C(CSc1nnc(-c2c[nH]c3ccccc23)n1-c1ccc(F)cc1)NCc1ccco1
EC50 [1]: 40.4 µM (active)

CN1C(=O)c2cc(NC(=O)c3cscn3)ccc2OC[C@@H]2O[C@H](CC(=O)NCc3ccc(Cl)c(Cl)c3)CC[C@H]21
AC50 [5]: 21 µM (active) | AC50 [6]: 6.62 µM (active) | AC50 [7]: 40.6 µM (active)

CCOC(=O)COc1c(-c2ccc(OC)cc2)oc2ccccc2c1=O
IC50 (cells [3]): 5.55 µM (active)

CCOC(=O)c1c(S(=O)(=O)NCc2ccc(C)o2)c(C)n(C)c1C
EC50 (cells [8]): > 350 µM (not active) | EC50 (cells [9]): > 350 µM (not active)

CN(CC(=O)Nc1ccccc1Cl)CC(=O)Nc1c(F)cccc1F
EC50 [1]: > 260 µM (inactive)

C[C@H](N)CN1CCc2ccc(Br)cc21
AC50 [2]: 0.84 µM (active)

COc1cccc(-c2cn3nc(C)c(C)nc3n2)c1
EC50 [10]: 19.7 µM (active) | EC50 [11]: 6.72 µM (active)
